From US12010993B2, “Granular agricultural compositions” (OMS Investments, Inc., priority 2020, dated 2024)

Experiments:
[1] = tested on: Kentucky bluegrass; experiment: Turfgrass greening vs commercial greening products, Kentucky bluegrass, Table 32; type: in vivo
Protocol: (§1) To further explain the positive greening response of Formulation 2, two additional trials were conducted on Kentucky bluegrass and perennial ryegrass. The additional trials compared Formulations 2 and 5 with other commercial greening products at equivalent nitrogen rates to better understand the speed of the greening response as well as the darkness of the greening response. Application rates are described in Table 31. The commercial greening products include Green Max™ Lawn Food and Turf Builder® Lawn Food available from the Scotts Company LLC (Marysville, OH). Urea was also evaluated.
(§2) For each trial, preceding application, mowing was withheld for 24 to 48 hours to ensure sufficient leaf area was present for formulation absorption. The experimental unit for turfgrass color response testing was a 3′×3′ plot. The research area for turfgrass color response contained minimal weed pressure so that product impact could be accurately and consistently assessed. Plots were separated on each side by a 2 ft. untreated buffer strip.
(§3) Formulations 2 and 5 were applied early in the morning to dew-laden turf. Green Max™ Lawn Food, Turf Builder® Lawn Food, and urea were all applied to dry turf once the morning dew had dissipated. All treatments were applied using a shaker jar and spreader box to ensure even particle coverage over the plot. Treatments applied to dry turf were watered in immediately after application with 0.18″ of water and wet-foliage applied treatments remained on the leaf surface for 24 hours prior to being watered in with 0.18″ of water. This trial design allowed for comparative evaluation of the response of turf to foliar nitrogen and iron compared to foliar nitrogen; soil applied nitrogen; and soil applied nitrogen and iron at two different rates of iron application. Turfgrass color was rated visually using the National Turfgrass Evaluation Program color rating scale (1-9). Treatments were rated for color 3 and 6 hours after application, and then 1, 3, 7, 14, and 20 days after application. Table 32 depicts testing of Kentucky bluegrass while Table 33 depicts testing of Perennial ryegrass.

[2] = tested on: perennial ryegrass; experiment: Turfgrass greening vs commercial greening products, perennial ryegrass, Table 33; type: in vivo
Protocol: as §1, §2, §3

## NC(N)=O [Urea]
[1]; 1 D after initial application
  Turf Color (1-9): 3.88
[1]; 3 D after initial application
  Turf Color (1-9): 4.00
[1]; 7 D after initial application
  Turf Color (1-9): 4.63
[1]; 14 D after initial application
  Turf Color (1-9): 5.25
[1]; 20 D after initial application
  Turf Color (1-9): 6.25
[1]; 3 hr after initial application
  Turf Color (1-9): 3.75
[1]; 6 hr after initial application
  Turf Color (1-9): 3.75
[2]; 1 D after initial application
  Turf Color (1-9): 3.50
[2]; 3 D after initial application
  Turf Color (1-9): 3.13
[2]; 7 D after initial application
  Turf Color (1-9): 4.63
[2]; 14 D after initial application
  Turf Color (1-9): 4.88
[2]; 20 D after initial application
  Turf Color (1-9): 6.13
[2]; 3 hr after initial application
  Turf Color (1-9): 3.13
[2]; 6 hr after initial application
  Turf Color (1-9): 3.50
